Laboratory results taken from patent US10363239B2, “Method for inhibiting growth of cancer cells” (Pain Therapeutics, Inc., priority 2013, dated 2019).
Read-outs that look alike come from different tables or passages of the source.

Key:
[1] = target: FLNA pentapeptide of SEQ ID NO: 1 (Bn-VAKGL) (Homo sapiens, UniProt P21333); test: FITC-NLX-based FLNA screening assay (inhibition of FITC-naloxone binding to Bn-VAKGL on streptavidin plates); conditions: 10 nM FITC-NLX
mu opiate receptor (MOR) = test: MOR agonist activity using [35S]GTPγS binding assay in striatal membranes; type: biochemical; conditions: for % DAMGO (0.1 μM) / % DAMGO (1 μM): relative to DAMGO; for % DAMGO + BFNA: 1 μM compound + β-FNA, relative to DAMGO + BFNA
Experimental: To assess the mu opiate receptor (MOR) agonist activity of positive compounds from the FLNA screening, compounds were tested in a [^35S]GTPγS binding assay using striatal membranes. […] This assay measures a functional consequence of receptor occupancy at one of the earliest receptor-mediated events. The assay permits traditional pharmacological parameters of potency, efficacy and antagonist affinity, with the advantage that agonist measures are not subjected to amplification or other modulation that may occur when analyzing parameters further downstream of the receptor.
Thus, striatal tissue was homogenized in 10 volumes of ice cold 25 mM HEPES buffer, pH 7.4, which contained 1 mM EGTA, 100 mM sucrose, 50 μg/ml leupeptin, 0.04 mM PMSF, 2 μg/ml soybean trypsin inhibitor and 0.2% 2-mercaptoethanol. The homogenates were centrifuged at 800×g for 5 minutes and the supernatants were centrifuged at 49,000×g for 20 minutes. The resulting pellets were suspended in 10 volume of reaction buffer, which contained 25 mM HEPES, pH 7.5, 100 mM NaCl, 50 μg/ml leupeptin, 2 μg/ml soybean trypsin inhibitor, 0.04 mM PMSF and 0.02% […].
The resultant striatal membrane preparation (200 μg) was admixed and maintained (incubated) at 30° C. for 5 minutes in reaction buffer as above that additionally contained 1 mM MgCl2 and 0.5 nM [^35S]GTPγS (0.1 μCi/assay, PerkinElmer Life and Analytical Sciences) in a total volume of 250 μl and continued for 5 minutes in the absence or presence of 0.1-10 μM of an assayed compound of interest. The reaction was terminated by dilution with 750 μl of ice-cold reaction buffer that contained 20 mM MgCl2 and 1 mM EGTA and immediate centrifugation at 16,000×g for 5 minutes.
The resulting pellet was solubilized by sonicating for 10 seconds in 0.5 ml of immunoprecipitation buffer containing 0.5% digitonin, 0.2% sodium cholate and 0.5% NP-40. Normal rabbit serum (1 μl) was added to 1 ml of lysate and incubated at 25° C. for 30 minutes. Nonspecific immune complexes were removed by incubation with 25 μl of protein A/G-conjugated agarose beads at 25° C. for 30 minutes followed by centrifugation at 5,000×g at 4° C. for 5 minutes. The supernatant was divided and separately incubated at 25° C. for 30 minutes with antibodies raised against Gαo proteins (1:1,000 dilutions).
The immunocomplexes so formed were collected by incubation at 25° C. for 30 minutes with 40 μl of agarose-conjugated protein A/G beads and centrifugation at 5,000×g at 4° C. for 5 minutes. The pellet was washed and suspended in buffer containing 50 mM Tris-HCl, pH 8.0, and 1% NP-40. The radioactivity in the suspension was determined by liquid scintillation spectrometry.

[2] = read-out: Percent Binding Inhibition, FLNA-binding compound 0.01 μM
[3] = read-out: Percent Binding Inhibition, FLNA-binding compound 0.1 μM
[4] = read-out: Percent Binding Inhibition, FLNA-binding compound 1 μM
[5] = FLNA-binding compound 0.01 μM, read-out: Percent Binding Inhibition
[6] = FLNA-binding compound 0.1 μM, read-out: Percent Binding Inhibition
[7] = FLNA-binding compound 1 μM, read-out: Percent Binding Inhibition
[8] = Series C-2, 0.1 μM compound, [35S]GTPγS binding to Gαo, striatal membranes
[9] = Series C-2, 1 μM compound + 1 μM β-FNA
[10] = Series C-2, 1 μM compound, [35S]GTPγS binding to Gαo, striatal membranes
[11] = Series C-1, 0.1 μM compound, [35S]GTPγS binding to Gαo, striatal membranes
[12] = Series C-1, 1 μM compound + 1 μM β-FNA
[13] = Series C-1, 1 μM compound, [35S]GTPγS binding to Gαo, striatal membranes

| Compound | inhibition at 0.01 µM [1, 2] | inhibition at 0.1 µM [1, 3] | inhibition at 1 µM [1, 4] | inhibition at 0.01 µM [1, 5] | inhibition at 0.1 µM [1, 6] | inhibition at 1 µM [1, 7] | % DAMGO (0.1 μM) (mu opiate receptor (MOR); Series C-2, 0.1 μM compound) | MOR agonist activity, percent [35S]GTPγS binding at the stated compound concentration (mu opiate receptor (MOR); [8]) | MOR agonist activity, percent [35S]GTPγS binding at the stated compound concentration (mu opiate receptor (MOR); [9]) | % DAMGO + BFNA (mu opiate receptor (MOR); Series C-2) | % DAMGO (1 μM) (mu opiate receptor (MOR); Series C-2, 1 μM compound) | MOR agonist activity, percent [35S]GTPγS binding at the stated compound concentration (mu opiate receptor (MOR); [10]) | % DAMGO (0.1 μM) (mu opiate receptor (MOR); Series C-1, 0.1 μM compound) | Concentration of FLNA-Binding Compound as Agonist 0.1 μM (mu opiate receptor (MOR); [11]) | Concentration of FLNA-Binding Compound as Agonist 1 μM + BFNA (mu opiate receptor (MOR); [12]) | % DAMGO + BFNA (mu opiate receptor (MOR); Series C-1) | % DAMGO (1 μM) (mu opiate receptor (MOR); Series C-1, 1 μM compound) | Concentration of FLNA-Binding Compound as Agonist 1 μM (mu opiate receptor (MOR); [13]) | other results |
| --- | --- | --- | --- | --- | --- | --- | --- | --- | --- | --- | --- | --- | --- | --- | --- | --- | --- | --- | --- |
| COc1cccc(CC(=O)CC2c3c(cc4c(c3OC)OCO4)CC[N+]2(C)C)c1OC (stereo not drawn) [Compound B0038] | 41.2% | 50.1% | 57% | – | – | – | – | – | – | – | – | – | – | – | – | – | – | – | % DAMGO (0.1 μM) (mu opiate receptor (MOR); Series B, 0.1 μM compound): 94.2%; MOR agonist activity, percent [35S]GTPγS binding at the stated compound concentration (mu opiate receptor (MOR); Series B, 0.1 μM compound, [35S]GTPγS binding to Gαo, striatal membranes): 147.5%; MOR agonist activity, percent [35S]GTPγS binding at the stated compound concentration (mu opiate receptor (MOR); Series B, 1 μM compound + 1 μM β-FNA): 117.1%; % DAMGO + BFNA (mu opiate receptor (MOR); Series B): 359.2%; % DAMGO (1 μM) (mu opiate receptor (MOR); Series B, 1 μM compound): 88.7%; MOR agonist activity, percent [35S]GTPγS binding at the stated compound concentration (mu opiate receptor (MOR); Series B, 1 μM compound, [35S]GTPγS binding to Gαo, striatal membranes): 205.3% |
| CS(=O)(=O)c1ccc(S(=O)(=O)N2CCOC23CCN(CC2CC2)CC3)cc1 [Compound C0126M] | – | – | – | 50.7% | 55.4% | 67.3% | 108.5% | 181.8% | 108.5% | 228.4% | 119.3% | 265.3% | – | – | – | – | – | – | – |
| NS(=O)(=O)c1ccc(S(=O)(=O)N2CCC3(CC2)OCCN3S(=O)(=O)c2ccc(S(N)(=O)=O)cc2)cc1 [Compound C0034] | 29.6% | 38.3% | 44.8% | – | – | – | – | – | – | – | – | – | 61.3% | 103.6% | 80.1% | 482.5% | 76.7% | 167.9% | – |
| COc1ccc(S(=O)(=O)N2CCOC23CCN(C)CC3)cc1 [Compound C0088M] | 40.1% | 52.4% | 56.1% | – | – | – | 160.5% | 276.3% | 177.1% | 513.3% | 161.7% | 355.3% | – | – | – | – | – | – | – |
| COc1ccc(S(=O)(=O)N2CCOC23CCN(C(C)C)CC3)cc1 [Compound C0133M] | – | – | – | 47.8% | 54.9% | 58.5% | 83.2% | 139.4% | 72.4% | 152.4% | 96.6% | 214.8% | – | – | – | – | – | – | – |
| O=C(c1ccc([N+](=O)[O-])cc1)N1CCC2(CC1)OCCN2C(=O)c1ccc([N+](=O)[O-])cc1 [Compound C0032] | 41.5% | 50.5% | 55.3% | – | – | – | – | – | – | – | – | – | 92.8% | 145.4% | 80.9% | 248.2% | 87.3% | 202.0% | – |
| COc1cc(S(=O)(=O)N2CCC3(CC2)OCCN3S(=O)(=O)c2cc(OC)c(OC)c(OC)c2)cc(OC)c1OC [Compound C0062] | – | – | – | 39.5% | 49.5% | 48% | – | – | – | – | – | – | 81.9% | 127.8% | 59.8% | 149.9% | 134.7% | 310.5% | – |
